# Source: publication PMC5465288, “[^68Ga]/[^188Re] Complexed [CDTMP] Trans-1,2-Cyclohexyldinitrilotetraphosphonic Acid As a Theranostic Agent for Skeletal Metastases” (Frontiers in Medicine, 2017)
# Assay: HAp (hydroxyapatite) binding study
# Details: 20 mg synthetic HAp in 1 mL saline, 10 min incubation at ambient temperature
# Protocol: To evaluate HAp binding, 20 mg of synthetic HAp was allowed to incubate in 1 mL of isotonic saline for 24 h. Labeled complex in a volume of 50 µL was then added, subjected to vortex for 10 s and incubated at ambient temperature for 10 min. After incubation, samples had been centrifuged, and the supernatant was removed. Hap fraction was washed twice with 0.5 mL saline, and all the washes were collected. Radioactivity was then checked in combined liquids and HAp fraction using gamma counter.
substance,measurement,value
"[^68Ga]-trans-1,2-cyclohexyldinitrilo tetramethylene phosphonic acid [[^68Ga]-CDTMP]",binding to HAp,89 ± 3%
